A word on the pEC50: it is the EC50 on a negative log10 scale, so that one unit is a factor of ten.

A short description of test [1]: Vasorelaxant activity against depolarization-induced basilar artery constriction in white rabbit at 10 uM. The format is functional, Oryctolagus cuniculus. The arrangement: scale not given: the % may be the effect or the level left.
Test [2] can be described thus: Vasorelaxant activity against depolarization-induced basilar artery constriction in white rabbit. The format is functional, tissue-based, Oryctolagus cuniculus.

SMILES strings stand for the structures. pEC50: −log10 of the molar value.

`C/C(=C\C=O)CCC/C(C)=C/CCC1(C)OCCO1` returned an Activity in test [1] of 20.1%.

For `CC(=O)CC/C=C(\C)CCC/C(C)=C/C=O`, the Activity in test [1] was 12.6%.

As to `C/C(=C\CCC1(C)OCCO1)CCC/C(C)=C/C(O)CC(C)C` (stereo unspecified), the pEC50 in test [2] was 5.85. Further, in test [1], the Activity was found to be 99.8%.

In turn, `CC(=O)CC/C=C(\C)CCC/C(C)=C/C#N` came in with an Activity in test [1] of 10.3%.

In test [1], `C/C(=C\CC/C(C)=C/CCC1(C)OCCO1)CC#N` showed an Activity of 33.5%.

For the compound `CC(=O)CC/C=C(\C)CC/C=C(\C)CC#N`, the Activity in test [1] is 13.1%.

With `C/C(=C\CCC1(C)OCCO1)CCC/C(C)=C/C(=O)CC(C)C`, the Activity in test [1] is reported as 83.3%.

The compound `CC(=O)CC/C=C(\C)CCC/C(C)=C/C(O)CC(C)C` (stereo unspecified) gave a negative-log EC50 (pEC50) in test [2] of 5.62. The same compound returned an Activity in test [1] of 98.9%.

Turning to `C/C(=C\C#N)CCC/C(C)=C/CCC1(C)OCCO1`, the Activity in test [1] was determined as 44.6%.

These data come from ChEMBL document CHEMBL1177795, “Synthesis of two marine farnesylacetones that dilate the basilar arteries of rabbits” (Bioorg Med Chem Lett, 2010).
